Test results from patent publication US10105362B2, “Anti-tumor use of anagrelide and derivatives thereof” (SHANGHAI INSTITUTE OF MATERIA MEDICA, CHINESE ACADEMY OF …, priority 2013, dated 2018).
Entries after “also recorded” stand apart in the source; their conditions may differ.

Columns and labels:
[1] = tested on: PARP cleavage in FHCC 98 cells; test: PARP cleavage by Western Blotting (apoptosis); type: cell-based, human; conditions: 100 nM, different time points
Source text: (§1) 1) Vertical electrophoretic separation of proteins: 8%-10% SDS-polyacrylamide (SDA-PAGE) gel electrophoresis separation, 5% stacking gel. The voltage for stacking gel was 80V, separation gel separation voltage for separating gel was 120V, and electrophoresis was stopped when bromophenol blue indicator ran to the bottom; 2) membrane transferring: semi-dry transferring: transmembrane voltage was 10-15V, and the time was adjusted according to the size of the protein; 3) pre-stained with Ponceau to observe transmembrane effect; 4) blocking: It was blocked with 5% skim milk in TBST and oscillated on Decolorization shaker at room temperature for 1 hour; 5) the binding with first antibody: The antibody was diluted at 1: 2000 to 1: 10000 in TBST containing 5% BSA, oscillated on decolorization shaker 1 hour under room temperature for binding, and placed at 4° C. overnight. TBST was used to wash for three times, and 10 minutes for each time. 6) the binding with secondary antibody: The antibody was diluted at 1:5000 to 1:10000 in TBST containing 5% BSA, and oscillated on decolorization shaker 1 hour for binding under room temperature. TBST was used to wash for three times, and 10 minutes for each time. ECL developing kit was used to treat substrate for 2-3 minutes, detected for chemiluminescence, and exposed on X-ray film. […] The PARP cleavage was detected by Western Blotting.

[2] = tested on: PARP cleavage in H4 cells; test: PARP cleavage by Western Blotting (apoptosis); type: cell-based, human; conditions: 100 nM, different time points
Source text: as §1

[3] = tested on: SMMC7721 cells; test: Cell cycle distribution by PI staining and flow cytometry; type: cell-based, human; conditions: 100 nM, 24 hours
Protocol: (§2) Logarithmic growth phase cells were seeded in 6-well culture plate in 5×10^5/mL concentration, 1.5 mL of culture medium in each well, and cultured overnight. Different concentrations of drugs were added to stimulate for a certain time, and then the cells were collected into 1.5 mL EP tube. The cells were washed with cold PBS for 1-2 times, little PBS (about 200 ul) was added and blown to uniform. 1 mL 75% ethanol was pre-cooled (prepared with PBS), and cells was added dropwise into alcohol solution which was oscillated on shaker, fixed under 4° C. overnight. After 1000rpm centrifuged for 5 min, the supernatant was discarded and 1-2 mL PBS was added to wash twice. The cells were suspended with 0.5 mL RnaseA (1.0 mg/ml), and digested under 37° C. for 1 h. The cells were resuspended with 0.5 mL 25 ug/mL PI dye liquor, and were kept in dark place under 4° C. for 30 min. The cells were filtered with 300 mesh sieve, and the cell cycle distribution was analyzed with flow cytometry.
(§3) In order to determine whether Anagrelide had affected the cell cycle of tumor cells, SMMC7721, HeLa, SW1116 were taken as example to represent sensitive cells and relatively sensitive cells to detect the effect on cell cycle of Anagrelide by PI staining and flow cytometry (FIG. 4 and FIG. 5).

[4] = tested on: SW1116 cells; test: as above; type: cell-based, human; conditions: 100 nM, 24 hours
Protocol: as §2, §3

[5] = tested on: HeLa cells; test: as above; type: cell-based, human; conditions: 100 nM, 24 hours
Protocol: as §2, §3

[6] = tested on: H4 cells; test: Cell cycle arrest (summary of experiments); type: cell-based, human
Protocol: as §2

[7] = tested on: FHCC98 cells; test: Cell cycle arrest (summary of experiments); type: cell-based, human
Protocol: as §2

[8] = tested on: Bel7404 cells; test: Cell cycle arrest (summary of experiments); type: cell-based, human
Protocol: as §2

[9] = tested on: A498 cells; test: Cell cycle arrest (summary of experiments); type: cell-based, human
Protocol: as §2

[10] = Body weight of tumor-bearing nude mice; type: in vivo, BALB/c naked mouse; conditions: 21 days
Protocol: Under aseptic conditions, tumor cells in the proliferation stage were taken. The cell concentration was adjusted after digestion, seeded at right armpit of nude mice, and the inoculated volume was 0.1 mL. Tumor diameter was measured with vernier caliper, after the tumor was grown to 200-300 mm^3, the tumor-bearing mice were selected, and randomly divided into 3 groups (n=4) according to the size of the tumors: negative control group, Anagrelide I (10 mg/kg), Anagrelide II (30 mg/kg). Each group was intragastric administrated, the day of administration was recorded as d1, the negative control group was given same amount of vehicle, and then the long and short diameters of tumor were measured twice a week, while the body weights of mice were weighed. At the 21th day of the administration, the animals were sacrificed and the tumor was dissected and weighed. Before the animals were sacrificed, eyeball was taken for blood sample, the number of white blood cell (WBC), red blood cell (RBC), concentration of hemoglobin (Hb) and number of platelet (PLT) were measured.

[11] = tested on: tumor cells; test: Growth inhibition of tumor cells (summary statement); type: cell-based; conditions: 10 nM/L
[12] = tested on: H4 cells; test: RTCA real-time monitoring of cell growth; type: cell-based, human; conditions: 100 nM, within 72 hours
Protocol: (§4) A real-time monitor from Roche was used to detect growth of cells. […] Logarithmic growth phase cells were digested with trypsin, centrifuged and resuspended, and were seeded at 3.5×10^4 /mL per well in 16-well plate matching to cell supporting real-time monitor, and the compound was dosed after 37° C. overnight incubation. Real-time monitoring was used to automatically detect the status of cell growth, and the cell number was reflected by the size of the resistance formed after cell spreading. The larger the cell index value, the faster the cell growth, and the more the number of cells. To further examine Anagrelide inhibition of cell growth, Hela, H4, FHCC98, SMMC7721, BEL7404, A498, SW1116 were taken for further experiment. Through cell real-time monitoring device, real-time monitoring of cell growth status change within 72 hours after Anagrelide administration was conducted (FIG. 3). 3000 cells/100 uL were plated, cultivated overnight, and 100 nM Anagrelide was added. The growth of cells was detected with real-time monitor.

[13] = tested on: SMMC7721 cells; test: RTCA real-time monitoring of cell growth; type: cell-based, human; conditions: 100 nM, within 72 hours
Protocol: as §4

[14] = tested on: FHCC98 cells; test: RTCA real-time monitoring of cell growth; type: cell-based, human; conditions: 100 nM, within 72 hours
Protocol: as §4

[15] = tested on: SW1116 cells; test: RTCA real-time monitoring of cell growth; type: cell-based, human; conditions: 100 nM, within 72 hours
Protocol: as §4

[16] = tested on: Bel7404 cells; test: RTCA real-time monitoring of cell growth; type: cell-based, human; conditions: 100 nM, within 72 hours
Protocol: as §4

[17] = tested on: A498 cells; test: RTCA real-time monitoring of cell growth; type: cell-based, human; conditions: 100 nM, within 72 hours
Protocol: as §4

[18] = tested on: HeLa cells; test: RTCA real-time monitoring of cell growth; type: cell-based, human; conditions: 100 nM, within 72 hours
Protocol: as §4

O=C1CN2Cc3c(ccc(Cl)c3Cl)N=C2N1 [Anagrelide, 6,7-dichloro-1,5-dihydro-imidazo [2,1-b] quinazolin-2 (3H)-one]
PARP cleavage [1]: PARP cleavage was gradually increased with time | PARP cleavage [2]: PARP cleavage was gradually increased with time | effect on cell cycle (cycle arrest) [3]: a significant G1, G2 cycle arrest was produced; also recorded: the cycle arrest was very strong | effect on cell cycle (cycle arrest) [4]: a relatively weaker effect of cycle arresting; also recorded: a significant cycle arrest phenomenon was produced | effect on cell cycle (cycle arrest) [5]: a significant G1, G2 cycle arrest was produced; also recorded: the cycle arrest was very strong | effect on cell cycle (cycle arrest) [6]: the cycle arrest was very strong | effect on cell cycle (cycle arrest) [7]: the cycle arrest was very strong | effect on cell cycle (cycle arrest) [8]: a significant cycle arrest phenomenon was produced | effect on cell cycle (cycle arrest) [9]: a significant cycle arrest phenomenon was produced | effect on animal body weight ([10]; 10 mg/kg intragastric): no significant difference from the negative control group | effect on animal body weight ([10]; 30 mg/kg intragastric): no significant difference from the negative control group | growth inhibition of tumor cells [11]: obviously inhibit the growth of tumor cells | cell growth status, real-time monitoring [12]: ultimately induced the cell death | cell growth status, real-time monitoring [13]: ultimately induced the cell death | cell growth status, real-time monitoring [14]: ultimately induced the cell death | cell growth status, real-time monitoring [15]: did not cause the cell apoptosis within 72 hours, but the growth was suppressed | cell growth status, real-time monitoring [16]: did not cause the cell apoptosis within 72 hours, but the growth was suppressed | cell growth status, real-time monitoring [17]: did not cause the cell apoptosis within 72 hours, but the growth was suppressed | cell growth status, real-time monitoring [18]: ultimately induced the cell death
